Data published in patent US11608323B2 (SYNGENTA LIMITED, priority 2013, dated 2023).

Experiments:
Type in all cases: in vivo
ZEAMX [1] = experiment: Pre-emergence herbicidal activity, glasshouse pot test; conditions: rate 1000 g/Ha, evaluated after 13 days, scale 0-5
Method in brief: (§1)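 Compounds are applied pre-emergence as an aqueous spray, formulated in 50:50 acetone/water containing 0.5% Tween 20, to pots sown one day earlier. Plants grow in a controlled glasshouse and are scored 13 days later for damage from 0 to 5.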

ABUTH [2] = experiment: as above; conditions: rate 1000 g/Ha, evaluated after 13 days, scale 0-5
Method in brief: as §1

ALOMY [3] = experiment: as above; conditions: rate 1000 g/Ha, evaluated after 13 days, scale 0-5
Method in brief: as §1

ECHCG [4] = experiment: as above; conditions: rate 1000 g/Ha, evaluated after 13 days, scale 0-5
Method in brief: as §1

SETFA [5] = experiment: as above; conditions: rate 1000 g/Ha, evaluated after 13 days, scale 0-5
Method in brief: as §1

AMARE [6] = experiment: as above; conditions: rate 1000 g/Ha, evaluated after 13 days, scale 0-5
Method in brief: as §1

ZEAMX [7] = experiment: Post-emergence herbicidal activity, glasshouse pot test; conditions: Zea mays; application post-emergence; rate 1000 g/Ha; evaluated after 13 days
Method in brief: (§2)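 Pot-grown plants, 8 days after sowing, were sprayed with compound formulated in acetone/water (50:50) with 0.5% Tween 20. Glasshouse conditions 24/16° C day/night, 14 h light, 65% humidity; damage scored after 13 days on a 0 (none) to 5 (total) scale.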

ABUTH [8] = experiment: as above; conditions: Abutilon theophrasti; application post-emergence; rate 1000 g/Ha; evaluated after 13 days
Method in brief: as §2

ALOMY [9] = experiment: as above; conditions: Alopecurus myosuroides; application post-emergence; rate 1000 g/Ha; evaluated after 13 days
Method in brief: as §2

ECHCG [10] = experiment: as above; conditions: Echinochloa crus-galli; application post-emergence; rate 1000 g/Ha; evaluated after 13 days
Method in brief: as §2

SETFA [11] = experiment: as above; conditions: Setaria faberi; application post-emergence; rate 1000 g/Ha; evaluated after 13 days
Method in brief: as §2

AMARE [12] = experiment: as above; conditions: Amaranthus retroflexus; application post-emergence; rate 1000 g/Ha; evaluated after 13 days
Method in brief: as §2

SMILES: CCC1C(O)N(c2cc(C(F)(F)F)ccn2)C(=O)N1C (stereo not drawn) [Compound A1]
- ZEAMX damage score, application pre-emergence (ZEAMX [1]): 3
- ABUTH damage score, application pre-emergence (ABUTH [2]): 5
- ALOMY damage score, application pre-emergence (ALOMY [3]): 4
- ECHCG damage score, application pre-emergence (ECHCG [4]): 5
- SETFA damage score, application pre-emergence (SETFA [5]): 5
- AMARE damage score, application pre-emergence (AMARE [6]): 5
- Post-emergence herbicidal activity ZEAMX (damage score 0-5) (ZEAMX [7]): 3
- Post-emergence herbicidal activity ABUTH (damage score 0-5) (ABUTH [8]): 5
- Post-emergence herbicidal activity ALOMY (damage score 0-5) (ALOMY [9]): 5
- Post-emergence herbicidal activity ECHCG (damage score 0-5) (ECHCG [10]): 5
- Post-emergence herbicidal activity SETFA (damage score 0-5) (SETFA [11]): 5
- Post-emergence herbicidal activity AMARE (damage score 0-5) (AMARE [12]): 5

SMILES: CCCOC1C(O)N(c2cc(C(F)(F)F)ccn2)C(=O)N1C (stereo not drawn) [Compound A2]
- ZEAMX damage score, application pre-emergence (ZEAMX [1]): 1
- ABUTH damage score, application pre-emergence (ABUTH [2]): 5
- ALOMY damage score, application pre-emergence (ALOMY [3]): 2
- ECHCG damage score, application pre-emergence (ECHCG [4]): 4
- SETFA damage score, application pre-emergence (SETFA [5]): 3
- AMARE damage score, application pre-emergence (AMARE [6]): 5
- Post-emergence herbicidal activity ZEAMX (damage score 0-5) (ZEAMX [7]): 2
- Post-emergence herbicidal activity ABUTH (damage score 0-5) (ABUTH [8]): 5
- Post-emergence herbicidal activity ALOMY (damage score 0-5) (ALOMY [9]): 4
- Post-emergence herbicidal activity ECHCG (damage score 0-5) (ECHCG [10]): 5
- Post-emergence herbicidal activity SETFA (damage score 0-5) (SETFA [11]): 5
- Post-emergence herbicidal activity AMARE (damage score 0-5) (AMARE [12]): 5

SMILES: COC1C(O)N(c2cc(C(F)(F)F)ccn2)C(=O)N1C (stereo not drawn) [Compound A5]
- ZEAMX damage score, application pre-emergence (ZEAMX [1]): 2
- ABUTH damage score, application pre-emergence (ABUTH [2]): 5
- ALOMY damage score, application pre-emergence (ALOMY [3]): 3
- ECHCG damage score, application pre-emergence (ECHCG [4]): 4
- SETFA damage score, application pre-emergence (SETFA [5]): 4
- AMARE damage score, application pre-emergence (AMARE [6]): 5
- Post-emergence herbicidal activity ZEAMX (damage score 0-5) (ZEAMX [7]): 2
- Post-emergence herbicidal activity ABUTH (damage score 0-5) (ABUTH [8]): 5
- Post-emergence herbicidal activity ALOMY (damage score 0-5) (ALOMY [9]): 4
- Post-emergence herbicidal activity ECHCG (damage score 0-5) (ECHCG [10]): 4
- Post-emergence herbicidal activity SETFA (damage score 0-5) (SETFA [11]): 4
- Post-emergence herbicidal activity AMARE (damage score 0-5) (AMARE [12]): 5

SMILES: CN1C(=O)N(c2cc(C(F)(F)F)ccn2)C(O)C1O (stereo not drawn) [Compound A7, 4,5-dihydroxy-1-methyl-3-[4-(trifluoromethyl)-2-pyridyl]imidazolidin-2-one]
- ZEAMX damage score, application pre-emergence (ZEAMX [1]): 1
- ABUTH damage score, application pre-emergence (ABUTH [2]): 5
- ALOMY damage score, application pre-emergence (ALOMY [3]): 4
- ECHCG damage score, application pre-emergence (ECHCG [4]): 3
- SETFA damage score, application pre-emergence (SETFA [5]): 4
- AMARE damage score, application pre-emergence (AMARE [6]): 5
- Post-emergence herbicidal activity ZEAMX (damage score 0-5) (ZEAMX [7]): 4
- Post-emergence herbicidal activity ABUTH (damage score 0-5) (ABUTH [8]): 5
- Post-emergence herbicidal activity ALOMY (damage score 0-5) (ALOMY [9]): 4
- Post-emergence herbicidal activity ECHCG (damage score 0-5) (ECHCG [10]): 5
- Post-emergence herbicidal activity SETFA (damage score 0-5) (SETFA [11]): 5
- Post-emergence herbicidal activity AMARE (damage score 0-5) (AMARE [12]): 5

SMILES: CON1C(=O)N(c2cc(C(F)(F)F)ccn2)C(O)C1C (stereo not drawn) [Compound A8, 4-hydroxy-1-methoxy-5-methyl-3-[4-(trifluoromethyl)-2-pyridyl]imidazolidin-2-one]
- ZEAMX damage score, application pre-emergence (ZEAMX [1]): 3
- ABUTH damage score, application pre-emergence (ABUTH [2]): 5
- ALOMY damage score, application pre-emergence (ALOMY [3]): 4
- ECHCG damage score, application pre-emergence (ECHCG [4]): 4
- SETFA damage score, application pre-emergence (SETFA [5]): 5
- AMARE damage score, application pre-emergence (AMARE [6]): 5
- Post-emergence herbicidal activity ZEAMX (damage score 0-5) (ZEAMX [7]): 4
- Post-emergence herbicidal activity ABUTH (damage score 0-5) (ABUTH [8]): 5
- Post-emergence herbicidal activity ALOMY (damage score 0-5) (ALOMY [9]): 5
- Post-emergence herbicidal activity ECHCG (damage score 0-5) (ECHCG [10]): 5
- Post-emergence herbicidal activity SETFA (damage score 0-5) (SETFA [11]): 5
- Post-emergence herbicidal activity AMARE (damage score 0-5) (AMARE [12]): 5

SMILES: CC1C(O)N(c2cc(C(F)(F)F)c(-c3ccccn3)cn2)C(=O)N1C (stereo not drawn) [Compound A9]
- ZEAMX damage score, application pre-emergence (ZEAMX [1]): 3
- ABUTH damage score, application pre-emergence (ABUTH [2]): 5
- ALOMY damage score, application pre-emergence (ALOMY [3]): 4
- ECHCG damage score, application pre-emergence (ECHCG [4]): 5
- SETFA damage score, application pre-emergence (SETFA [5]): 5
- AMARE damage score, application pre-emergence (AMARE [6]): 5
- Post-emergence herbicidal activity ZEAMX (damage score 0-5) (ZEAMX [7]): 4
- Post-emergence herbicidal activity ABUTH (damage score 0-5) (ABUTH [8]): 5
- Post-emergence herbicidal activity ALOMY (damage score 0-5) (ALOMY [9]): 5
- Post-emergence herbicidal activity ECHCG (damage score 0-5) (ECHCG [10]): 5
- Post-emergence herbicidal activity SETFA (damage score 0-5) (SETFA [11]): 5
- Post-emergence herbicidal activity AMARE (damage score 0-5) (AMARE [12]): 5

SMILES: CCOC1C(O)N(c2cc(C(F)(F)F)c(OC)cn2)C(=O)N1C (stereo not drawn) [Compound A10]
- ZEAMX damage score, application pre-emergence (ZEAMX [1]): 3
- ABUTH damage score, application pre-emergence (ABUTH [2]): 5
- ALOMY damage score, application pre-emergence (ALOMY [3]): 4
- ECHCG damage score, application pre-emergence (ECHCG [4]): 5
- SETFA damage score, application pre-emergence (SETFA [5]): 5
- AMARE damage score, application pre-emergence (AMARE [6]): 5
- Post-emergence herbicidal activity ZEAMX (damage score 0-5) (ZEAMX [7]): 4
- Post-emergence herbicidal activity ABUTH (damage score 0-5) (ABUTH [8]): 5
- Post-emergence herbicidal activity ALOMY (damage score 0-5) (ALOMY [9]): 5
- Post-emergence herbicidal activity ECHCG (damage score 0-5) (ECHCG [10]): 5
- Post-emergence herbicidal activity SETFA (damage score 0-5) (SETFA [11]): 5
- Post-emergence herbicidal activity AMARE (damage score 0-5) (AMARE [12]): 5
